Laboratory results reported in ChEMBL document CHEMBL4834428 (J Med Chem, 2021).

Assays:
[1] = target: T1, NAD-dependent protein deacetylase sirtuin-2 (Homo sapiens, UniProt Q8IXJ6); assay: Inhibition of His6-tagged/TEV fused SIRT2 (unknown origin) expressed in Escherichia coli BL21 (DE3) preincubated for 15 mins followed by NAD+ addition and measured after 30 mins by FLucK529Ac based luminescence assay
T1 sequence (Q8IXJ6 whole entry): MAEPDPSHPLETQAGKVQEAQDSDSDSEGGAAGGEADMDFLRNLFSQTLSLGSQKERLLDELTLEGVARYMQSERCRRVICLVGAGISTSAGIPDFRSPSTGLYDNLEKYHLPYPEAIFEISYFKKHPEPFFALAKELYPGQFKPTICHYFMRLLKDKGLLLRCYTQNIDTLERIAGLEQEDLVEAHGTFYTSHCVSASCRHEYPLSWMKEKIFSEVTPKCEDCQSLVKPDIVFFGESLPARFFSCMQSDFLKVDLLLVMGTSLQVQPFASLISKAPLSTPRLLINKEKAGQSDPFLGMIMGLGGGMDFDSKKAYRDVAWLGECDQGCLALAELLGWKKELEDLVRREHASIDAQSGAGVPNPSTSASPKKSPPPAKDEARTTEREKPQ

[2] = target: T2, NAD-dependent protein deacetylase sirtuin-3, mitochondrial (Homo sapiens, UniProt Q9NTG7); assay: Inhibition of His6-tagged/TEV fused SIRT3 (unknown origin) expressed in Escherichia coli BL21 (DE3) preincubated for 15 mins followed by NAD+ addition and measured after 30 mins by FLucK529Ac based luminescence assay
T2 sequence (Q9NTG7 whole entry): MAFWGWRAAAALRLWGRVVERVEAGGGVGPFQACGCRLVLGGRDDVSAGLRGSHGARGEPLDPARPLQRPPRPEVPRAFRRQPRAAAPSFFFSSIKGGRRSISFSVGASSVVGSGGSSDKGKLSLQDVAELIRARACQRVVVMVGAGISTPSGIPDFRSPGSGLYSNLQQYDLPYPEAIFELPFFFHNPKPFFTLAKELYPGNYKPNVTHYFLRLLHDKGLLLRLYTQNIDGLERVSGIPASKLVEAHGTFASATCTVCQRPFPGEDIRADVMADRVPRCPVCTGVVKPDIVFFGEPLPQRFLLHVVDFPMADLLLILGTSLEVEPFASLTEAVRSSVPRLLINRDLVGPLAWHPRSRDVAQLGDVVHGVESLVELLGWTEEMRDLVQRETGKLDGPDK

[3] = target: T3, NAD-dependent protein deacetylase sirtuin-1 (Homo sapiens, UniProt Q96EB6)
T3 sequence (Q96EB6 whole entry): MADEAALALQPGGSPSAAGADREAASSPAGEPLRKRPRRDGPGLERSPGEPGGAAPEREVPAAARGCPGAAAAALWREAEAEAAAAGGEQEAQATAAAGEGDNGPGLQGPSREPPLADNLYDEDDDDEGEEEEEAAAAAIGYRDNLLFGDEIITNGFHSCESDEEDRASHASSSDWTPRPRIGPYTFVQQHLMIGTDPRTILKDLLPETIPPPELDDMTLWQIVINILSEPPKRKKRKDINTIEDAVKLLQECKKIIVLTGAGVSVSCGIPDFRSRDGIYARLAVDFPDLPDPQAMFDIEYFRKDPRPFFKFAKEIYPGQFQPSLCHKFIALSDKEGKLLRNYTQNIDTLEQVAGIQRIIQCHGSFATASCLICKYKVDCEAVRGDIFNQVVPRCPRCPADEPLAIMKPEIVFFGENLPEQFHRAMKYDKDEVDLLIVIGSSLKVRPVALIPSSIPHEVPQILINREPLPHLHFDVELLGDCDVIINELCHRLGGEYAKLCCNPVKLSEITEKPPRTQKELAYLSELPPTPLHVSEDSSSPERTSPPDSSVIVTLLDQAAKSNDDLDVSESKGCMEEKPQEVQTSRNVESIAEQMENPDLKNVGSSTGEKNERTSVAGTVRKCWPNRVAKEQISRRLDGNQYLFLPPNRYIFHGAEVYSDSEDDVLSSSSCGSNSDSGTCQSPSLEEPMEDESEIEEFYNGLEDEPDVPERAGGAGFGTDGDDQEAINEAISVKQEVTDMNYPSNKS
Description: Inhibition of His6-tagged SIRT1 (unknown origin) expressed in Escherichia coli BL21 (DE3) preincubated for 15 mins followed by NAD+ addition and measured after 30 mins by FLucK529Ac based luminescence assay

[4] = target: T3, NAD-dependent protein deacetylase sirtuin-1; remark: listed apart in the source
Description: Uncompetitive inhibition of His6-tagged SIRT1 (unknown origin) expressed in Escherichia coli BL21 (DE3) assessed as inhibition constant measured every 2 mins for 30 mins in presence of NAD+ and ATP by FLucK549Ac based Michaelis-Menten analysis

Row | IC50 [1] [µM] | IC50 [2] [µM] | IC50 [3] [µM] | Ki [4] [µM] | SMILES
1 | 37.7 | > 60 | 0.22 | 0.4 | N#Cc1ccccc1CN1CC(C(N)=O)Oc2ccccc21 (stereo in doubt; 4.27)
2 | > 60 | > 60 | > 60 |  | CN(C)C(=O)C1CN(Cc2ccccc2)c2ccccc2O1 (stereo not given)
3 | > 60 | > 60 | > 60 |  | CC(C)(C)OC(=O)CN1CC(C(N)=O)Oc2ccccc21 (stereo not given)
